In patent publication US5552421A, “Leukotriene biosynthesis inhibitors” (Boehringer Ingelheim Pharmaceuticals, Inc., priority 1995, dated 1996):

tested on: LTB4 biosynthesis in human polymorphonuclear leukocytes (PMNs); assay: Inhibition of LTB4 biosynthesis in human polymorphonuclear leukocytes (PMNs); type: cell-based; conditions: Homo sapiens, Leukocyte, Table 1A, Esters; LTB4, A23187-stimulated human PMNs
Protocol: Inhibition of LTB4, biosynthesis in human polymorphonuclear leukocytes (PMNs)
The inhibition of leukotriene biosynthesis is measured by determining whether and to what extent test compounds can inhibit LTB4 production from endogenous arachidonic acid in human peripheral blood leukocytes.
To 48-well tissue culture plates was added a solution of the test compound followed by addition of human polymorphonuclear leukocytes isolated from peripheral blood at a density of 1.5×10^6 cells/well. Culture plates were preincubated for fifteen minutes with shaking at 28° C. Cells were stimulated with calcium ionophore A23187 at a final concentration of 2.5 μM for an additional ten minutes. The reaction was terminated by the addition of an EGTA solution (10 mM final concentration)followed by centrifugation at 1500 rpm at 10° C. Supernatants were stored at -70° C. LTB4 levels were determined by RIA using a commercially available kit. Nonlinear regression analysis was used to calculate. IC50 values.
The following tables show % inhibition of LTB4 biosynthesis by compounds of the invention at test concentrations indicated, with the determined IC50 shown in μM.

IC50 [nM] | Compound
1000 | CCOC(=O)C(Cc1ccccc1)N(C)c1nc2ccccc2s1 (centres unmarked) [Compound 36]
520 | CCOC(=O)C(CCc1ccccc1)Nc1nc2ccccc2s1 (centres unmarked) [Compound 37]

same assay, conditions: Homo sapiens, Leukocyte, Table 2, Amides; values with <: see footnote d, Tables 1 and 1A

Compound | IC50 [nM]
Cc1ccc2oc(N[C@@H](CC3CCCCC3)C(=O)N3CCCCC3)nc2c1 [Compound 46] | 190
CON(C)C(=O)[C@H](CC1CCCCC1)Nc1nc2cc(C)ccc2o1 [Compound 45] | 30

Second part, the compound after the results:

IC50 [nM] | Compound
3000 | CN(C)C(=O)C(Cc1ccccc1)Nc1nc2ccccc2s1 (centres unmarked) [Compound 41]
3000 | NC(=O)[C@H](Cc1ccccc1)Nc1nc2ccccc2s1 [Compound 40]

same assay, conditions: Homo sapiens, Leukocyte, Table 3, Phenyl; values with <: see footnote d, Table 1

IC50 [nM] | Compound
< 1000 | CNC(=O)Nc1ccc2oc(NC(CC3CCCCC3)c3ccccc3)nc2c1 (centres unmarked) [Compound 62]
190 | O=C(O)c1ccc2oc(NC(CC3CCCCC3)c3ccccc3)nc2c1 (centres unmarked) [Compound 63]
300 | Clc1ccc(C(CC2CCCCC2)Nc2nc3ccccc3o2)cc1 (centres unmarked) [Compound 55]
160 | c1ccc(CC(Nc2nc3ccccc3s2)c2ccccc2)cc1 (centres unmarked) [Compound 47]
80 | Clc1ccccc1C(CC1CCCCC1)Nc1nc2ccccc2o1 (centres unmarked) [Compound 58]
170 | Fc1ccc(C(CC2CCCCC2)Nc2nc3ccccc3o2)cc1 (centres unmarked) [Compound 71]
300 | Cc1cccc(C(CC2CCCCC2)Nc2nc3ccccc3o2)c1 (centres unmarked) [Compound 57]

same assay, conditions: Homo sapiens, Leukocyte, Table 4, Pyridyl; values with <: see footnote d, Table 1

IC50 [nM] | Compound
< 30 | O=[N+]([O-])c1ccc(CC(Nc2nc3cc(Cl)ccc3o2)c2ccccn2)cc1 (centres unmarked) [Compound 104]
1 | Fc1cc2nc(NC(CC3CCCCC3)c3ccccn3)oc2cc1F (centres unmarked) [Compound 112]
< 100 | Cc1nc(CC(Nc2nc3cc(Cl)ccc3o2)c2ccccn2)cs1 (centres unmarked) [Compound 117]
190 | Cc1ccc2oc(NC(CC3CCCCC3)c3ccncc3)nc2c1 (centres unmarked) [Compound 83]
19 | Fc1ccc(CC(Nc2nc3cc(Cl)ccc3o2)c2ccccn2)cc1 (centres unmarked) [Compound 93]
12 | CC(C)c1ccc2oc(NC(Cc3ccc(F)cc3)c3ccccn3)nc2c1 (centres unmarked) [Compound 94]
24 | Fc1ccc(CC(Nc2nc3cc(F)c(F)cc3o2)c2ccccn2)cc1 (centres unmarked) [Compound 113]
< 30 | O=[N+]([O-])c1ccc2oc(NC(Cc3ccc(F)cc3)c3ccccn3)nc2c1 (centres unmarked) [Compound 115]
< 30 | Fc1ccc2oc(NC(Cc3cccc(Cl)c3)c3ccccn3)nc2c1 (centres unmarked) [Compound 105]
5 | CC(C)c1ccc2oc(NC(Cc3cccc(Cl)c3)c3ccccn3)nc2c1 (centres unmarked) [Compound 100]
4 | Fc1ccc2oc(NC(CC3CCCCC3)c3ccccn3)nc2c1F (centres unmarked) [Compound 111]
8 | Fc1ccc(CC(Nc2nc3cc(C(F)(F)F)ccc3o2)c2ccccn2)cc1 (centres unmarked) [Compound 107]
12 | COC(=O)c1ccc2oc(NC(CC3CCCCC3)c3ccccn3)nc2c1 (centres unmarked) [Compound 92]
55 | c1cncc(C(CC2CCCCC2)Nc2nc3ccccc3o2)c1 (centres unmarked) [Compound 80]

same assay, conditions: Homo sapiens, Leukocyte, Table 6, Methyloxadiazole; values with <: see footnote d, Table 1

IC50 [nM] | Compound
< 300 | Cc1noc(C(Cc2ccc(F)cc2)Nc2nc3cc(C(C)C)ccc3o2)n1 (centres unmarked) [Compound 126]
28 | Cc1ccc2oc(N[C@@H](CC3CCCCC3)c3nc(C)no3)nc2c1 [Compound 125, L-2-[2-Cyclohexyl-1-(3-methyl-1,2,4-oxadiazol-5-yl)ethyl]amino-5-methylbenzoxazole]
120 | Cc1noc([C@H](CC2CCCCC2)Nc2nc3ccccc3s2)n1 [Compound 124]
< 1000 | CCc1ccc2sc(N[C@@H](Cc3ccccc3)c3nc(C)no3)nc2c1 [Compound 123]

same assay, conditions: Homo sapiens, Leukocyte, Table 7, Ketones

IC50 [nM] | Compound
23 | Cc1ccc2oc(N[C@@H](CC3CCCCC3)C(=O)c3nccn3C)nc2c1 [Compound 132]
< 1000 | CC(=O)[C@H](Cc1ccccc1)Nc1nc2ccccc2o1 [Compound 129]

same assay, conditions: Homo sapiens, Leukocyte, Table 8, Miscellaneous Acyclic; values with <: see footnote d, Table 1

Compound | IC50 [nM]
CC(C)c1ccc2oc(NC(Cc3cccnc3)CS(C)(=O)=O)nc2c1 (centres unmarked) [Compound 147] | < 1000
CSCC(Cc1cccnc1)Nc1nc2cc(C(C)C)ccc2o1 (centres unmarked) [Compound 143] | < 1000
COCC(Cc1ccc(OC)cc1)Nc1nc2cc(C(C)C)ccc2o1 (centres unmarked) [Compound 139] | < 30

The remaining lines, values ahead:

IC50 [nM] | Compound
< 1000 | COCC(Cc1cccnc1)Nc1nc2cc(C(C)C)ccc2o1 (centres unmarked) [Compound 140]
29 | CCOC[C@H](Cc1ccccc1)Nc1nc2cc(Cl)ccc2o1 [Compound 135]
< 100 | CC(=O)NC[C@H](Cc1ccccc1)Nc1nc2cc(C(C)C)ccc2o1 [Compound 151]
220 | CCCOC[C@H](Cc1ccccc1)Nc1nc2cc(C(C)C)ccc2o1 [Compound 134]

same assay, conditions: Homo sapiens, Leukocyte, Table 9, Miscellaneous Heterocycle; values with <: see footnote d, Table 1

IC50 [nM] | Compound
< 1000 | Cc1nc(CC(Nc2nc3cc(C(C)C)ccc3o2)c2ncc[nH]2)cs1 (centres unmarked) [Compound 157]
< 100 | CC(C)c1ccc2oc(NC(Cc3cccc(Cl)c3)c3nccs3)nc2c1 (centres unmarked) [Compound 159]

same assay, conditions: Homo sapiens, Leukocyte, Table 10, Oxazolopyridines; values with <: see footnote d, Table 1

IC50 [nM] | Compound
78 | c1ccc(C(CC2CCCCC2)Nc2nc3ncccc3o2)cc1 (centres unmarked) [Compound 163]
28 | Cc1ccc2oc(NC(CC3CCCCC3)c3ccccc3)nc2n1 (centres unmarked) [Compound 164]

same assay, conditions: Homo sapiens, Leukocyte, Table 11, Thiazolopyridines; values with <: see footnote d, Table 1

IC50 [nM] | Compound
13 | Cc1ccc2sc(NC(CC3CCCCC3)c3ccccn3)nc2n1 (centres unmarked) [Compound 187]
31 | Cc1cnc2nc(NC(CC3CCCCC3)c3ccccn3)sc2c1 (centres unmarked) [Compound 184]
< 1000 | Cc1cnc2nc(NC(CC3CCCCC3)c3ccccc3)sc2c1 (centres unmarked) [Compound 191]
27 | c1ccc(C(CC2CCCCC2)Nc2nc3cccnc3s2)nc1 (centres unmarked) [Compound 174]
27 | c1ccc(C(CC2CCCCC2)Nc2nc3cccnc3s2)cc1 (centres unmarked) [Compound 172, 2-[(2-Cyclohexyl-1-phenylethyl)amino]thiazolo[5,4-b]pyridine]
3.9 | Clc1cnc2nc(NC(CC3CCCCC3)c3ccccn3)sc2c1 (centres unmarked) [Compound 188]

same assay, conditions: Homo sapiens, Leukocyte, Table 14, Miscellaneous Compounds; values with <: see footnote d, Table 1

IC50 [nM] | Compound
< 1000 | COC(=O)[C@H](Cc1cn(C)cn1)Nc1nc2cc(C(C)C)ccc2o1 [Compound 201]

same assay, conditions: Leukocyte; Table 1, Esters; LTB4, A23187-stimulated human PMNs; values with < (footnote d): greater than 50% (504 [sic]) inhibition at this concentration, IC50 not characterized further

Compound | IC50 [nM]
COC(=O)[C@H](CC1CCCCC1)Nc1nc2cc(C)ccc2o1 [Compound 24] | 1.7
CCOC(=O)[C@H](CC1CCCCC1)Nc1nc2ccccc2s1 [Compound 16] | 6
CCOC(=O)[C@H](CC1CCCCC1)Nc1nc2cc(CC)ccc2s1 [Compound 15] | 27
CCOC(=O)C(Cc1csc(C)n1)Nc1nc2cc(C(C)C)ccc2o1 (centres unmarked) [Compound 33] | < 30
CCOC(=O)C(Cc1csc(C)n1)Nc1nc2cc(OC)ccc2o1 (centres unmarked) [Compound 27] | < 300
Cc1ccc2oc(N[C@@H](CC3CCCCC3)C(=O)OC(C)(C)C)nc2c1 [Compound 25] | < 300
COC(=O)[C@H](CC1CCCCC1)Nc1nc2ccccc2o1 [Compound 21] | 6.4

Next, values leading:

IC50 [nM] | Compound
220 | CCOC(=O)[C@H](Cc1ccccc1)Nc1nc2ccc(C(C)C)cc2o1 [Compound 20]
730 | CC(C)(C)OC(=O)[C@H](Cc1ccccc1)Nc1nc2ccccc2s1 [Compound 13]
240 | CCOC(=O)[C@H](Cc1ccccc1)Nc1nc2ccc(CC)cc2s1 [Compound 12]
1500 | CCOC(=O)[C@@H](Cc1ccccc1)Nc1nc2ccccc2o1 [Compound 18]
650 | COC(=O)[C@@H](Cc1ccccc1)Nc1nc2ccc(C(C)C)cc2s1 [Compound 10]
400 | CCOC(=O)C(Cc1ccccc1)Nc1nc2ccccc2s1 (racemic) [Compound 4, DL-N-(Benzothiazol-2-yl)phenylalanine ethyl ester]
9 | CCOC(=O)[C@H](Cc1ccccc1)Nc1nc2cc(CC)ccc2s1 [Compound 14]
170 | CCCCc1ccc2nc(NC(Cc3ccc(Cl)cc3)C(=O)OCC)sc2c1 (centres unmarked) [Compound 11]
0.52 | CCOC(=O)[C@H](Cc1ccccc1)Nc1nc2cc(C(C)C)ccc2o1 [Compound 19]
190 | CCOC(=O)C(Cc1cccnc1)Nc1nc2cc(C(C)C)ccc2o1 (centres unmarked) [Compound 30]
140 | COC(=O)[C@H](Cc1ccccc1)Nc1nc2ccc(C(C)C)cc2s1 [Compound 8]
330 | CCOC(=O)C(Cc1ccc(F)cc1)Nc1nc2ccccc2s1 (centres unmarked) [Compound 2]

same assay, conditions: Table 4, Pyridyl; values with <: see footnote d, Table 1

IC50 [nM] | Compound
16 | Cc1ccc2oc(NC(CC3CCCCC3)c3cccnc3)nc2c1 (single isomer, unassigned) [Compound 89]
< 1000 | Cc1ccc2oc(NC(CC3CCCCC3)c3cccnc3)nc2c1 (single isomer, unassigned) [Compound 90]
45 | Cc1ccc2oc(NC(CC3CCCCC3)c3ccccn3)nc2c1 (single isomer, unassigned) [Compound 88]
10 | Fc1ccc(CC(Nc2nc3cc(Cl)ccc3o2)c2ccccn2)cc1 (single isomer, unassigned) [Compound 118]
1 | FC(F)(F)c1ccc2oc(NC(CC3CCCCC3)c3ccccn3)nc2c1 (centres unmarked) [Compound 108]
4 | Clc1ccc2sc(NC(CC3CCCCC3)c3ccccn3)nc2c1 (centres unmarked) [Compound 102]

same assay, conditions: Table 10, Oxazolopyridines; values with <: see footnote d, Table 1

IC50 [nM] | Compound
15 | Cc1ccc2oc(NC(CC3CCCCC3)c3ccccn3)nc2n1 (single isomer, unassigned) [Compound 166]
